The test system of this assay is acute pain caused by photothermal therapy in male mice of Kunming strain. Briefly: Mouse photothermal tail flick analgesia experiment. To be noted: lateral ventricle injection. The class given is in vivo. The protocol: After the drug was injected into the lateral ventricle, intrathecal, subcutaneous, and intraperitoneal, the modulating activity on pain was measured by the photothermal tail flick test in mouse.
In the lateral ventricle administration, the lateral ventricle tube-buried surgery of the mouse should be performed in advance to ensure the accuracy of the drug injection site. A brain stereotaxic instrument was used in the lateral ventricle tube-buried surgery of the mouse. Male mice of Kunming strain, weighing 21±2 g; brain stereotaxic instrument is Jiangwan I. After the mice were anesthetized with sodium pentobarbital (i.p., 80 mg/kg mouse body weight), the hair in the head surgery area of the mouse was cut off and the mouse was placed on the brain stereotactic instrument and fixed. The surgery area was disinfected with iodophor, the scalp was opened along the sagittal suture to reveal the skull and the position of the anterior fontanelle can be found. 3 mm backward and 1 mm left/right from the anterior fontanelle, the upper position of the lateral ventricle can be found. A self-made stainless steel tube (a section of 24-gauge, which is connected to a small section of PE-10 tube) is inserted 3 mm downward according to the above position, which is the lateral ventricle. A section of stainless steel string (28-gauge) is inserted into the above-mentioned steel tube to prevent cerebrospinal fluid spillage and foreign matter infection and block the steel pipe. The steel tube is fixed with medical dental powder and glue, and after solidification, the wound is sutured. After the surgery, the mice were recovered tier 4 days, and the follow-up experiment was started on the 5th day. Surgical instruments, stainless steel tubes, etc. involved in the experiment need to be disinfected before the surgery. The mouse lateral ventricle was injected with 4 μl of the drug each time, and then the steel tube was rinsed with 1 μl of physiological saline.
Spinal cord level administration is performed by intrathecal injection in conscious mice, and the specific procedure is described in the method reported by Hylden and Wilcox (Eur. J. Pharmacol. 1980, 67: 313). A 25 μL microinjector was inserted directly into the subarachnoid space between L5 and L6.
The intraperitoneal administration was directly injected using a 1 mL syringe at an injection volume of 10 μl/g body weight. At the time of injection, the mouse was held by left hand with their abdomen facing up and the head was at low position while the tail was at high position. The side of the midline of the abdomen was taken, the needle hole of the syringe was upward, the needle tip penetrates into the skin in a direction less than 20 degrees, the needle tip was slightly pushed in the direction of the mouse head and sticking abdominal wall, and then punctures into the abdominal cavity in the direction of 45 degrees, and was withdrawn to confirm that it has not been pierced into the blood vessel or the intestine, afterwards the drug solution is slowly pushed out.
Subcutaneous injection was also administered directly using a 1 mL syringe in an injection volume of 10 μl/g body weight. At the time of injection, the neck and tail of the mouse were fixed in the left hand, and the head and body were inclined downward at 45 degrees. The needle hole of the syringe is upward, the needle tip is slowly pierced into the skin on the right side of the back center line at an angle of less than 20 degrees, and the needle tip is lightly picked up to confirm that there is no piercing, afterwards the drug solution is slowly pushed out.
Male mice of Kunming strain were used to detect the effects of drugs on pain perception using a photothermal tail flick instrument. The ambient temperature is controlled at 22±1° C., and the experimental animals are free to eat and drink. The basic tail flick incubation period (3-5 seconds) was determined prior to administration, and mice that were too sensitive or dull were discarded. […]

Square brackets hold non-standard residues; d marks the D form. Peptide text beside a SMILES is read from it. NMeY = CN[C@@H](Cc1ccc(O)cc1)C(=O)O; NMeF = CN[C@@H](Cc1ccccc1)C(=O)O

The values that follow come from patent publication US11167006B2 (Shanghai Tianci Life Science Development Co., Ltd., priority 2016, dated 2021).

Take `CSCC[C@H](NC(=O)[C@H](Cc1ccccc1)NC(=O)CNC(=O)[C@@H](C)NC(=O)[C@@H](N)Cc1ccc(O)cc1)C(=O)N1CCC[C@H]1C(=O)N[C@@H](CCC(N)=O)C(=O)N[C@@H](CCCNC(=N)N)C(=O)N[C@@H](Cc1ccccc1)C(N)=O` [Compound 5] (H-Y[dA]GFMPQRF-NH2): the “ED50 value (nmol) (95% confidence interval), analgesic activity” value is given as 0.2957 (0.2637 to 0.3338) nmol.
`CC(C)C[C@@H](NC(=O)[C@H](Cc1ccccc1)NC(=O)CNC(=O)[C@@H](C)NC(=O)[C@@H](N)Cc1ccc(O)cc1)C(=O)N1CCC[C@H]1C(=O)N[C@@H](CCC(N)=O)C(=O)N[C@@H](CCCNC(=N)N)C(=O)N[C@@H](Cc1ccccc1)C(N)=O` [Compound 7, Tyr-D-Ala-Gly-Phe-D-Leu-Pro-Gln-Arg-Phe-NH2] (H-Y[dA]GF[dL]PQRF-NH2): the “ED50 value (nmol) (95% confidence interval), analgesic activity” value is 0.4367 (0.3865 to 0.4934) nmol.
For `C[C@@H](NC(=O)[C@@H](N)Cc1ccc(O)cc1)C(=O)NCC(=O)N[C@@H](Cc1ccccc1)C(=O)N[C@H](C)C(=O)N1CCC[C@H]1C(=O)N[C@@H](CCC(N)=O)C(=O)N[C@@H](CCCNC(=N)N)C(=O)N[C@@H](Cc1ccccc1)C(N)=O` [Compound 8, Tyr-D-Ala-Gly-Phe-D-Ala-Pro-Gln-Arg-Phe-NH2] (H-Y[dA]GF[dA]PQRF-NH2) the value was 0.3361 (0.2864 to 0.3944) nmol; for `CN[C@@H](Cc1ccc(O)cc1)C(=O)N[C@H](C)C(=O)NCC(=O)N[C@@H](Cc1ccccc1)C(=O)N[C@@H](CCC(N)=O)C(=O)N1CCC[C@H]1C(=O)N[C@@H](CCC(N)=O)C(=O)N[C@@H](CCCNC(=N)N)C(=O)N[C@@H](Cc1ccccc1)C(N)=O` [Compound 1] (H-[NMeY][dA]GFQPQRF-NH2), 1.2980 (1.2000 to 1.4050) nmol; for `C[C@@H](NC(=O)[C@@H](N)Cc1ccc(O)cc1)C(=O)NCC(=O)N[C@@H](Cc1ccccc1)C(=O)NCC(=O)N1CCC[C@H]1C(=O)N[C@@H](CCC(N)=O)C(=O)N[C@@H](CCCNC(=N)N)C(=O)N[C@@H](Cc1ccccc1)C(N)=O` [Compound 3] (H-Y[dA]GFGPQRF-NH2), 0.4172 (0.3798 to 0.4583) nmol.
For `CSCC[C@@H](NC(=O)[C@H](Cc1ccccc1)NC(=O)CNC(=O)[C@@H](C)NC(=O)[C@@H](N)Cc1ccc(O)cc1)C(=O)N1CCC[C@H]1C(=O)N[C@@H](CCC(N)=O)C(=O)N[C@@H](CCCNC(=N)N)C(=O)N[C@@H](Cc1ccccc1)C(N)=O` [Compound 6, Tyr-D-Ala-Gly-Phe-D-Met-Pro-Gln-Arg-Phe-NH2] (H-Y[dA]GF[dM]PQRF-NH2) the value was 0.3986 (0.3716 to 0.4275) nmol; for `C[C@@H](NC(=O)[C@@H](N)Cc1ccc(O)cc1)C(=O)NCC(=O)N(C)[C@@H](Cc1ccccc1)C(=O)N[C@@H](CCC(N)=O)C(=O)N1CCC[C@H]1C(=O)N[C@@H](CCC(N)=O)C(=O)N[C@@H](CCCNC(=N)N)C(=O)N[C@@H](Cc1ccccc1)C(N)=O` [Compound 2, Tyr-D-Ala-Gly-NMe-Phe-Gln-Pro-Gln-Arg-Phe-NH2] (H-Y[dA]G[NMeF]QPQRF-NH2), 0.3862 (0.3590 to 0.4154) nmol; for `CC(C)C[C@H](NC(=O)[C@H](Cc1ccccc1)NC(=O)CNC(=O)[C@@H](C)NC(=O)[C@@H](N)Cc1ccc(O)cc1)C(=O)N1CCC[C@H]1C(=O)N[C@@H](CCC(N)=O)C(=O)N[C@@H](CCCNC(=N)N)C(=O)N[C@@H](Cc1ccccc1)C(N)=O` [Compound 4] (H-Y[dA]GFLPQRF-NH2), 0.1865 (0.1509 to 0.2304) nmol.
